Results on 15 molecules are retold here after US10077261B2, “Imidazolin-5-one derivative useful as FASN inhibitors for the treatment of cancer” (Janssen Pharmaceutica NV, priority 2012, dated 2018).

Assay [1] concerns A2780 ovarian cells. Description: A2780 ovarian cell proliferation assay in lipid reduced medium, without palmitate (MTT). Format: cell-based. The note with it: Homo sapiens, A2780, 96 h; read-out: pIC50 A2780 Ovarian Cell, Without Palmitate (converted).
Assay [2] concerns LNCaP-Vancouver prostate cells. Description: In vitro LNCaP Vancouver prostate cell proliferation assay in lipid reduced medium. The note with it: read-out: pIC50 LNCaP_Vancouver prostate cell (converted). Format: cell-based.
The target in assay [3] is Fatty Acid Synthase Keto-reductase Domain (FASN KR) (Homo sapiens, UniProt P49327). Description: Fatty Acid Synthase keto-reductase domain (FASN KR) inhibition, NADPH oxidation at 340 nm.
Fatty Acid Synthase Keto-reductase Domain (FASN KR), sequence (P49327 whole entry, the tested form may be a part): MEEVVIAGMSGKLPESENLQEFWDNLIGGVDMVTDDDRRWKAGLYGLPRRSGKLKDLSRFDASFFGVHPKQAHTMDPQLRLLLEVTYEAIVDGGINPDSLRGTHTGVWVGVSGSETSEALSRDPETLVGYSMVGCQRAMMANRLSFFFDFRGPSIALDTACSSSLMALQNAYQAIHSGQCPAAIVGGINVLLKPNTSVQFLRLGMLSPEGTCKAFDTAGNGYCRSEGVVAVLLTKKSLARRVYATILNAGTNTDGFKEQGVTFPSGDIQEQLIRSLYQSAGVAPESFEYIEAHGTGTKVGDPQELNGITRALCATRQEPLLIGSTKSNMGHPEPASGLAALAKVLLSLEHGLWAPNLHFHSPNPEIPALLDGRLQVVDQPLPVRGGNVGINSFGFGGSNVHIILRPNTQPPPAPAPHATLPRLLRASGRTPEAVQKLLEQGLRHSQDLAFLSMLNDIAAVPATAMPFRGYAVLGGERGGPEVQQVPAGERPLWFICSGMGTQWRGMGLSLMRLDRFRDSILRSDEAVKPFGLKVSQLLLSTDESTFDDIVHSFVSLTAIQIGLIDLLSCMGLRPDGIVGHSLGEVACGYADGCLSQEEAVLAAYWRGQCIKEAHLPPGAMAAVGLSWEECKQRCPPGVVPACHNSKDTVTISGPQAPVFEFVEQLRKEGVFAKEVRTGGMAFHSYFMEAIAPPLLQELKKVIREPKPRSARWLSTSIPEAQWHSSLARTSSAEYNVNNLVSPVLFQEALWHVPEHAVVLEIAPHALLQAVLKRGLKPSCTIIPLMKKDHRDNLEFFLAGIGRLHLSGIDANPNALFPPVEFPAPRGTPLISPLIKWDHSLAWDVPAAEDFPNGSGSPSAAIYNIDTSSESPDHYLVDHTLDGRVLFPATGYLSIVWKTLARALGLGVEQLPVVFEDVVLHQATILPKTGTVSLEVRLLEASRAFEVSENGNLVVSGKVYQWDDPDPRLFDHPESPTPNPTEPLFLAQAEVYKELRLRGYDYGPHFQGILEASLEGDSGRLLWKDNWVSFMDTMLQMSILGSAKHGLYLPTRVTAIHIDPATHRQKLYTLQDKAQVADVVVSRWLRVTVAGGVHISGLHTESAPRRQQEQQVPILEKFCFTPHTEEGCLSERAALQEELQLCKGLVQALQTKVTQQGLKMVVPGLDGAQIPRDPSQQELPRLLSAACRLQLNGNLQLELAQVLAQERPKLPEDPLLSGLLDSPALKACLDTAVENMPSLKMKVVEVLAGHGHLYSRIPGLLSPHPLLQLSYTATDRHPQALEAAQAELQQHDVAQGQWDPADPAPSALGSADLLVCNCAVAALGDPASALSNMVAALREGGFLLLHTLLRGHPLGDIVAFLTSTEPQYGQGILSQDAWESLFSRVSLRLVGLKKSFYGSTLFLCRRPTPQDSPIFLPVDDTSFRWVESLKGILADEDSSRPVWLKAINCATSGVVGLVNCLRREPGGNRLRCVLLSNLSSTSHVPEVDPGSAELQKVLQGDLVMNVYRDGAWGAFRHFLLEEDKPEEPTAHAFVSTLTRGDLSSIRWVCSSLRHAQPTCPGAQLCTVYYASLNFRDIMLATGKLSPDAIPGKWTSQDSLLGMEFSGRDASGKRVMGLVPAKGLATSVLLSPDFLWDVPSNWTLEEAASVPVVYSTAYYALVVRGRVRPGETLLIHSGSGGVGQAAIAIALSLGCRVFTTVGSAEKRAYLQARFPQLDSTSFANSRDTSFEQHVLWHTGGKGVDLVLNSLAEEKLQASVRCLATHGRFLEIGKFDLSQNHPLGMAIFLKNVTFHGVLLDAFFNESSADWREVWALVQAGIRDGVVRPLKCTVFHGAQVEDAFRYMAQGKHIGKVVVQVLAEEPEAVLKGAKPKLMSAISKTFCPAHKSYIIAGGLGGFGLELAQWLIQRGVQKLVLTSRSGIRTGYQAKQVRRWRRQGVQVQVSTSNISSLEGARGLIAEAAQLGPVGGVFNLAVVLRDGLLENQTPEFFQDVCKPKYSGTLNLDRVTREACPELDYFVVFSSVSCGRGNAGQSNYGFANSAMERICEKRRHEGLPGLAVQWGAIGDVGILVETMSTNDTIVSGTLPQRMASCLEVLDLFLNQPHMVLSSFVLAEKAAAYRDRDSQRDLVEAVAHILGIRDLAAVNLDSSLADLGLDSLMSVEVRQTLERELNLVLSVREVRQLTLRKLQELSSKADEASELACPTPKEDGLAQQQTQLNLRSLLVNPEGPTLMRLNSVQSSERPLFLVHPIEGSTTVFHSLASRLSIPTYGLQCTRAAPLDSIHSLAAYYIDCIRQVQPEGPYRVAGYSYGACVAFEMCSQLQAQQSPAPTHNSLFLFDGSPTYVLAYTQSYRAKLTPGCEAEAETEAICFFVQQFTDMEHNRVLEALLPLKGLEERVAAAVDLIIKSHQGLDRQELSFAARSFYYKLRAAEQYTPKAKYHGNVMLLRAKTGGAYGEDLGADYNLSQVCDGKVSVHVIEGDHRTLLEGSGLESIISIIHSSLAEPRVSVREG
Experimental: After 20 minutes incubation at room temperature the plate was measured again (T2).
The decrease in absorbance was calculated as (Absorbance before incubation T1)−(Absorbance following incubation T2).
A plot of Controlmin versus test compound concentration was fitted to a 4-parameter logistic curve using a non-linear least squares regression method.
The target in assay [4] is T1, hFASN enzyme (full length) (Homo sapiens, UniProt P49327).
T1 construct: 10 μL hFASN enzyme (full length, 300 ng, purified in house); made in house
T1 sequence (P49327 whole entry): as the sequence (P49327 whole entry, the tested form may be a part) above
The assay is described as follows: Fatty Acid Synthase (FASN) inhibition scintillation proximity assay. Format: biochemical. To be noted: for inhibition at 10 µM: read-out: Human FASN % inhibition @ 10 μM, 10 μM test compound; for IC50: read-out: Human FASN pIC50 (converted). The method, boiled down:
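Compounds at 0.01–30 μM were mixed with 300 ng purified full-length enzyme in 100 mM KH2PO4 pH 7.5, 1 mM DTT. Substrates ³H-acetyl-CoA and malonyl-CoA were then converted, and bead addition stopped the reaction. Signal was normalised to low and high plate controls and fitted by 4-parameter nonlinear regression.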

The test system of assay [5] is PC-3M-Luc-C6 prostate cells. The assay is described as follows: In vitro PC-3M-Luc-C6 prostate cell proliferation assay in lipid reduced medium. Format: cell-based. The note with it: 96 h, read-out: pIC50 PC-3M-Luc-C6 prostate cell (converted).
Assay [6] deals with A2780 ovarian cells. Description: A2780 ovarian cell proliferation assay in lipid reduced medium, with palmitate (MTT). Format: cell-based. To be noted: Homo sapiens, A2780, 96 h; read-out: pIC50 A2780 Ovarian Cell, With Palmitate (converted). The method, boiled down: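 Seeded cells were switched next day to lipid-reduced serum, exposed to compound and 25 μM palmitate complexed with fatty-acid-free BSA, and incubated 96 h. Proliferation was then determined by MTT absorbance at 544 nm, with a best-fit curve of signal against concentration.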

The inhibition is the relative decrease from the control value, in per cent. Turning to `Cc1cc(-c2ccc3oc(C#N)cc3c2)ccc1C1=NC2(CC2)C(=O)N1C[C@@H]1CCN(C(=O)C2CC2)C1` [compound 255, (R)-5-(4-(6-((1-(cyclopropanecarbonyl)pyrrolidin-3-yl)methyl)-7-oxo-4,6-diazaspiro[2.4]hept-4-en-5-yl)-3-methylphenyl)benzofuran-2-carbonitrile], the IC50 in assay [1] is about 0.977 µM; in assay [2], 1.12 µM; in assay [3], 0.0832 µM; in assay [4], 0.0631 µM; in assay [5], about 0.525 µM; in assay [6], over 10 µM. Moreover, the inhibition at 10 µM in assay [4] worked out at 99%.

In the case of `N#Cc1cc2cc(-c3ccc(C4=NC5(CC5)C(=O)N4C[C@@H]4CCN(C(=O)C5CC5)C4)cc3)ccc2o1` [compound 256, (R)-5-(4-(6-((1-(cyclopropanecarbonyl)pyrrolidin-3-yl)methyl)-7-oxo-4,6-diazaspiro[2.4]hept-4-en-5-yl)phenyl)benzofuran-2-carbonitrile], the IC50 in assay [1] is 0.832 µM; in assay [2], 2.4 µM; in assay [3], 0.0955 µM; in assay [4] it was 0.0537 µM; in assay [5], about 0.417 µM; in assay [6], over 10 µM. For the same molecule, in assay [4], the inhibition at 10 µM came to 95%.

`O=C(C1CC1)N1CC[C@@H](CN2C(=O)C3(CC3)N=C2c2ccc(-c3ccc4cncnc4c3)cc2F)C1` [compound 258, (R)-6-((1-(cyclopropanecarbonyl)pyrrolidin-3-yl)methyl)-5-(2-fluoro-4-(quinazolin-7-yl)phenyl)-4,6-diazaspiro[2.4]hept-4-en-7-one]: the IC50 in assay [1] is about 0.0112 µM; in assay [2] it was 0.0316 µM; in assay [3], 0.0832 µM; in assay [4], 0.0724 µM; in assay [5], 0.0145 µM; in assay [6], over 10 µM. Moreover, in assay [4], the inhibition at 10 µM was found to be 94%.

For `O=C(C1CC1)N1CC[C@@H](CN2C(=O)C3(CC3)N=C2c2ccc(-c3ccc4cc(F)ccc4c3)cc2F)C1` [compound 259, (R)-6-((1-(cyclopropanecarbonyl)pyrrolidin-3-yl)methyl)-5-(2-fluoro-4-(6-fluoronaphthalen-2-yl)phenyl)-4,6-diazaspiro[2.4]hept-4-en-7-one], the IC50 in assay [1] was 0.105 µM; in assay [2], 0.447 µM; in assay [3], 0.0295 µM; in assay [4] it was 0.0251 µM; in assay [5], 0.0676 µM; in assay [6], over 10 µM. Moreover, the inhibition at 10 µM in assay [4] amounted to 95%.

`O=C(C1CC1)N1CC[C@@H](CN2C(=O)C3(CC3)N=C2c2ccc(-c3ccc4cccc(F)c4c3)cc2F)C1` [compound 260, (R)-6-((1-(cyclopropanecarbonyl)pyrrolidin-3-yl)methyl)-5-(2-fluoro-4-(8-fluoronaphthalen-2-yl)phenyl)-4,6-diazaspiro[2.4]hept-4-en-7-one]: the IC50 in assay [1] is about 0.0708 µM; in assay [2], 0.0851 µM; in assay [3], 0.0372 µM; in assay [4], 0.0162 µM; in assay [5], 0.0372 µM; in assay [6], over 10 µM. For the same molecule, the inhibition at 10 µM in assay [4] came to 101%.

For the molecule `O=C(C1CC1)N1CC[C@@H](CN2C(=O)C3(CC3)N=C2c2ccc(-c3c[nH]c4ccccc34)cc2F)C1` [compound 261, (R)-6-((1-(cyclopropanecarbonyl)pyrrolidin-3-yl)methyl)-5-(2-fluoro-4-(1H-indol-3-yl)phenyl)-4,6-diazaspiro[2.4]hept-4-en-7-one], the IC50 is 0.00661 µM in assay [1]; about 0.102 µM in assay [2]; 0.0891 µM in assay [3]; 0.055 µM in assay [4]; 0.0214 µM in assay [5]; over 10 µM in assay [6]. Further, the inhibition at 10 µM in assay [4] worked out at 98%.

For the molecule `Cn1ncc2cc(-c3ccc(C4=NC5(CC5)C(=O)N4CC4CN(C(=O)C5(O)CC5)C4)c(Cl)c3)ccc21` [compound 264, 5-(2-chloro-4-(1-methyl-1H-indazol-5-yl)phenyl)-6-((1-(1-hydroxycyclopropanecarbonyl)azetidin-3-yl)methyl)-4,6-diazaspiro[2.4]hept-4-en-7-one], the IC50 in assay [1] is 0.0741 µM; in assay [2], 0.501 µM; in assay [3] it was 0.158 µM; in assay [4], 0.0372 µM; in assay [5], 0.0447 µM; in assay [6], over 10 µM. Also, the inhibition at 10 µM in assay [4] was found to be 108%.

Regarding `Cc1cc(-c2ccc3c(cnn3C)c2)ccc1C1=NC2(CC2)C(=O)N1C[C@@H]1CCN(C(=O)C2(C)CC2)C1` [compound 265, (R)-5-(2-methyl-4-(1-methyl-1H-indazol-5-yl)phenyl)-6-((1-(1-methylcyclopropanecarbonyl)pyrrolidin-3-yl)methyl)-4,6-diazaspiro[2.4]hept-4-en-7-one], the IC50 in assay [1] is about 0.00288 µM; in assay [2], 0.0138 µM; in assay [3], about 0.0537 µM; in assay [4], 0.0457 µM; in assay [5], about 0.00708 µM; in assay [6], over 10 µM. Further, the inhibition at 10 µM in assay [4] was 103%.

Turning to `Cc1cc(-c2ccc3cc(F)ccc3c2)ccc1C1=NC2(CC2)C(=O)N1C[C@@H]1CCN(C(=O)C2(C)CC2)C1` [compound 266, (R)-5-(4-(6-fluoronaaphthalen-2-yl)-2-methylphenyl)-6-((1-(1-methylcyclopropanecarbonyl)pyrrolidin-3-yl)methyl)-4,6-diazaspiro[2.4]hept-4-en-7-one], the IC50 in assay [1] was about 0.00219 µM; in assay [2] it was 0.0151 µM; in assay [3], 0.0468 µM; in assay [4] it was 0.0339 µM; in assay [5] it was 0.00468 µM; in assay [6], 1.35 µM. The inhibition at 10 µM in assay [4] turned out to be 102%.

Turning to `Cc1cc(-c2ccc(-c3cnn(C)c3)cc2)ccc1C1=NC2(CC2)C(=O)N1C[C@@H]1CCN(C(=O)C2(C)CC2)C1` [compound 267], the IC50 in assay [1] was 0.0017 µM; in assay [2], 0.0123 µM; in assay [3] it was 0.0513 µM; in assay [4] it was 0.0263 µM; in assay [5], about 0.00309 µM; in assay [6], over 10 µM. For the same molecule, the inhibition at 10 µM in assay [4] worked out at 97%.

For the molecule `N#Cc1ccc2nc(-c3ccc(C4=NC5(CC5)C(=O)N4CC4CN(C(=O)C5CC5)C4)c(F)c3)sc2c1` [compound 268, 2-(4-(6-((1-(cyclopropanecarbonyl)azetidin-3-yl)methyl)-7-oxo-4,6-diazaspiro[2.4]hept-4-en-5-yl)-3-fluorophenyl)benzo[d]thiazole-6-carbonitrile], the IC50 was about 0.0447 µM in assay [1]; 0.288 µM in assay [2]; 0.0692 µM in assay [3]; 0.055 µM in assay [4]; 0.0589 µM in assay [5]; over 10 µM in assay [6]. Also, the inhibition at 10 µM in assay [4] was found to be 104%.

As to `Cc1cc(-c2ccc3cc(C#N)ccc3c2)ccc1C1=NC2(CC2)C(=O)N1CC1CN(C(=O)C2(C)CC2)C1` [compound 269, 6-(3-methyl-4-(6-((1-(1-methylcyclopropanecarbbonyl)azetidin-3-yl)methyl)-7-oxo-4,6-diazaspiro[2.4]hept-4-en-5-yl)phenyl)-2-naphthonitrile], the IC50 is about 0.00372 µM in assay [1]; 0.0282 µM in assay [2]; 0.0661 µM in assay [3]; 0.0224 µM in assay [4]; about 0.00832 µM in assay [5]; 4.27 µM in assay [6]. In addition, the inhibition at 10 µM in assay [4] worked out at 102%.

As for `Cc1ccc2nc(-c3ccc(C4=NC5(CC5)C(=O)N4CC4CN(C(=O)C5CC5)C4)c(F)c3)sc2c1` [compound 270, 6-((1-(cyclopropanecarbonyl)azetidin-3-yl)methyl)-5-(2-fluoro-4-(6-methylbenzo[d]thiazol-2-yl)phenyl)-4,6-diazaspiro[2.4]hept-4-en-7-one], the IC50 in assay [1] was about 0.0275 µM; in assay [2], 0.195 µM; in assay [3], 0.166 µM; in assay [4], 0.0355 µM; in assay [5], 0.0347 µM; in assay [6], about 5.5 µM. The inhibition at 10 µM in assay [4] is 102%.

On to `O=C(C1CC1)N1CC(CN2C(=O)C3(CC3)N=C2c2ccc(-c3nc4ccc(F)cc4s3)cc2F)C1` [compound 271, 6-((1-(cyclopropanecarbonyl)azetidin-3-yl)methyl)-5-(2-fluoro-4-(6-fluorobenzo[d]thiazol-2-yl)phenyl)-4,6-diazaspiro[2.4]hept-4-en-7-one], for which the IC50 in assay [1] is about 0.0741 µM; in assay [2], 0.417 µM; in assay [3] it was 0.166 µM; in assay [4] it was 0.0562 µM; in assay [5] it was 0.0977 µM; in assay [6], over 10 µM. Moreover, in assay [4], the inhibition at 10 µM came out at 104%.

In the case of `Cc1cc(-c2ccc3cc(C#N)ccc3c2)ccc1C1=NC2(CC2)C(=O)N1CC1CN(C(=O)C2(O)CC2)C1` [compound 272, 6-(4-(6-((1-(1-hydroxycyclopropanecarbonyl)azetidin-3-yl)methyl)-7-oxo-4,6-diazaspiro[2.4]hept-4-en-5-yl)-3-methylphenyl)-2-naphthonitrile], the IC50 in assay [1] was about 0.00724 µM; in assay [2], 0.049 µM; in assay [3] it was about 0.0389 µM; in assay [4] it was 0.0186 µM; in assay [5] it was 0.0107 µM; in assay [6] it was over 10 µM. The inhibition at 10 µM in assay [4] turned out to be 105%.
